US6320051A, “Quinolones used as MRS inhibitors and bactericides” (SmithKline Beecham plc, priority 1998, dated 2001)
≈ marks a conversion by molar mass, not a printed value. Where a name gives a salt, the structure may show the parent alone. Read-outs that look alike come from different tables or passages of the source.

Experiments:
[1] = test system: S. aureus, S. pneunmoniae, and E. faecalis; test: Antibacterial activity, standard MIC assay modified by inclusion of cyclodextrin; type: cell-based; conditions: read-out: MIC against some strains of S. aureus, S. pneumoniae and E. faecalis
Procedure: (§1) Compounds of the present invention were assayed for antibacterial activity against a range of pathogenic organisms (strains of S aureus, S pneumoniae, E faecalis, H influenzae and M catarrhalis) in a standard MIC assay modified by the inclusion of cyclodextrin, to assist with solubility.

[2] = test system: M. Catarrhalis; test: as above; type: cell-based; conditions: Moraxella catarrhalis; MIC assay with cyclodextrin; range over the listed Examples; read-out: MIC against M. Catarrhalis
Procedure: as §1

[3] = test system: H. influenzae; test: as above; type: cell-based; conditions: MIC assay with cyclodextrin
Procedure: as §1

[4] = test system: isoleucyl t-RNA synthetase; conditions: background of the invention; cited from earlier work
[5] = some strains of the organisms, MIC assay with cyclodextrin

SMILES | MIC [1, 5] [mg/L] | MIC [2] [mg/L] | antibacterial activity against H. influenzae [3] | inhibition of isoleucyl t-RNA synthetase [4] | MIC [1] [mg/L]
O=c1cc(NCCCNCc2cc(Cl)cc(Cl)c2Cl)[nH]c2ccccc12 [Example 45, 2-[3-(2,3,5-Trichliorobenzylamino)prop-1-ylamino]-1H-quinolin-4-one dihydrochloride] | < 1 | 2 to 64 |  |  | 
O=c1cc(NCCCNC2CCCc3c2[nH]c2ccccc32)[nH]c2ccccc12 (stereo not shown) [Example 64, 2-[3-(2,3,4,9-Tetrahydro-1H-carbazol-1-ylamino)prop-1-ylamino]-1H-quinolin-4-one] |  |  | active |  | 
O=c1cc(NCCCNCc2cc(Br)c(Br)c(Br)c2)[nH]c2ccccc12 [Example 42, 2-[3-(3,4,5-Tribromobenzylamino)prop-1-ylamino]-1H-quinolin-4-one] | < 1 | 2 to 64 (≈ 3.68 to 118 µM) |  |  | 
O=c1cc(NCCCNCc2cc(Br)cc(I)c2)[nH]c2ccccc12 [Example 43, 2-[3-(3-Bromo-5-iodobenzylamino)prop-1-ylamino]-1H-quinolin-4-one] | < 1 | 2 to 64 (≈ 3.9 to 125 µM) |  |  | 
CCOc1c(Br)cc(Br)cc1CN[C@H]1CCC[C@@H]1CNc1cc(=O)c2ccccc2[nH]1 [Example 75, 2-{[(1R,2S)-2-(3,5-Dibromo-2-ethoxybenzylamino)cyclopentyl-methyl]amino}-1H-quinolin-4-one] | < 1 | 2 to 64 (≈ 3.64 to 117 µM) |  |  | 
Nc1c(Br)cc(Br)cc1CNCCCNc1cc(=O)c2ccccc2[nH]1 [Example 77, 2-[3-(2-Amino-3,5-dibromobenzylamino)prop-1-ylamino]-1H-quinolin-4-one] | < 1 | 2 to 64 (≈ 4.16 to 133 µM) |  |  | 
O=c1cc(NC[C@H]2CCC[C@@H]2NCc2cc(Br)cc(Br)c2)[nH]c2ccccc12 [Example 73, 2-{[(1R,2S)-2-(3,5-Dibromobenzylamino)cyclopentyl-methyl]amino}-1H-quinolin-4-one] | < 1 | 2 to 64 (≈ 3.96 to 127 µM) |  |  | 
O=c1cc(NCCCNCc2cc3c(Cl)cc(Cl)cc3[nH]2)[nH]c2ccccc12 [Example 76, 2-[3-(4,6-Dichloroindol-2-ylmethylamino)prop-1-ylamino]-1H-quinolin-4-one] | < 1 | 2 to 64 (≈ 4.82 to 154 µM) |  |  | 
CC(C)(C)OC(=O)COc1c(Cl)cc(Cl)cc1CNCCCNc1cc(=O)c2ccccc2[nH]1 [Example 67, 2-[3-(2-tert-Butoxycarbonylmethoxy-3,5-dichlorobenzylamino)prop-1-ylamino]-1H-quinolin-4-one] | < 1 | 2 to 64 (≈ 3.95 to 126 µM) |  |  | 
C/C(=C\C(=O)OCCCCCCCCC(=O)O)C[C@@H]1OC[C@H](C[C@@H]2O[C@H]2[C@@H](C)[C@H](C)O)[C@@H](O)[C@H]1O [Mupirocin] |  |  |  | inhibitor | 
O=c1cc(NC[C@H]2CCC[C@@H]2NCc2ccc(Cl)c(Cl)c2)[nH]c2ccccc12 [Example 71, 2-{[(1R,2S)-2-(3,4-Dichlorobenzylamino)cyclopentylmethyl]amino}-1H-quinolin-4-one] |  | 2 to 64 (≈ 4.8 to 154 µM) |  |  | < 1
O=c1cc(NC[C@H]2CCC[C@@H]2NCc2cc(Br)c(Br)s2)[nH]c2ccccc12 [Example 74, 2-{[(1R,2S)-2-(4,5-Dibromo-2-thiophenemethylamino)-cyclopentylmethyl]amino}-1H-quinolin-4-one] | < 1 | 2 to 64 (≈ 3.91 to 125 µM) |  |  | 
Cc1c(Br)cc(CNCCCNc2cc(=O)c3ccccc3[nH]2)cc1Br [Example 41, 2-[3-(3,5-Dibromo-4-methylbenzylamino)prop-1-ylamino]-1H-quinolin-4-one] | < 1 | 2 to 64 (≈ 4.17 to 134 µM) |  |  | 
O=c1cc(NCCCNC2CCc3c(Cl)cc(Cl)cc32)[nH]c2ccccc12 (stereo not shown) [Example 55, 2-[3-(4,6-Dichloroindan-1-ylamino)prop-1-ylamino]-1H-quinolin-4-one] |  | 2 to 64 (≈ 4.97 to 159 µM) |  |  | < 1
O=c1cc(NCCCNCc2cc(I)cc(I)c2)[nH]c2ccccc12 [Example 36, 2-[3-(3,5-Diiodobenzylamino)prop-1-ylamino]-1H-quinolin-4-one] | < 1 | 2 to 64 (≈ 3.58 to 114 µM) |  |  | 
O=c1cc(NCCCNC2CCc3c(Cl)sc(Cl)c32)[nH]c2ccccc12 (stereo not shown) [Example 47, 2-[3-(1,3-Dichloro-5,6-dihydro-4H-cyclopenta[c]thiophen-4-ylamino]prop-1-ylamino}-1H-quinolin-4-one] | < 1 | 2 to 64 (≈ 4.9 to 157 µM) |  |  | 
O=c1cc(NCCCNCc2ccc(Cl)c(C(F)(F)F)c2)[nH]c2ccccc12 [Example 38, 2-[3-(4-Chloro-3-trifluoromethylbenzylamino)prop-1-ylamino]-1H-quinolin-4-one] | < 1 | 2 to 64 (≈ 4.88 to 156 µM) |  |  | 
O=c1cc(NCCCNCc2cc(Br)cc(Br)c2)[nH]c2ccccc12 [Example 40, 2-[3-(3,5-Dibromobenzylamino)prop-1-ylamino]-1H-quinolin-4-one] | < 1 | 2 to 64 (≈ 4.3 to 138 µM) |  |  | 
Cl.O=c1cc(NCCCNCc2ccc(Cl)c(Cl)c2)[nH]c2ccccc12 [Example 18, 2-[3-(3,4-Dichlorobenzylamino)prop-1-ylamino]-1H-quinolin-4-one hydrochloride] |  | 2 to 64 |  |  | < 1
O=c1cc(NCCCNCc2cc(Cl)cc(Cl)c2OCc2ccccc2)[nH]c2ccccc12 [Example 39, 2-[3-(2-Benzyloxy-3,5-dichlorobenzylamino)prop-1-ylamino]-1H-quinolin-4-one] | < 1 | 2 to 64 (≈ 4.15 to 133 µM) |  |  | 
CCOc1c(Br)cc(Br)cc1CNCCCNc1cc(=O)c2ccccc2[nH]1.Cl.Cl [Example 46, 2-[3-(3,5-Dibromo-2-ethoxybenzylamino)prop-1-ylamino]-1H-quinolin-4-one dihydrochloride] | < 1 | 2 to 64 |  |  | 
O=c1cc(NCCCNC2CCCc3c2cc(Cl)c(Cl)c3Cl)[nH]c2ccccc12 (stereo not shown) [Example 53, 2-[3-(5,6,7-Trichloro-1,2,3,4-tetrahydronaphth-1-ylamino)prop-1-ylamino]-1H-quinolin-4-one] |  | 2 to 64 (≈ 4.44 to 142 µM) |  |  | < 1
C=CCOc1c(Cl)cc(Cl)cc1CNCCCNc1cc(=O)c2ccccc2[nH]1 [Example 68, 2-[3-(2-Allyloxy-3,5-dichlorobenzylamino)prop-1-ylamino]-1H-quinolin-4-one] | < 1 | 2 to 64 (≈ 4.63 to 148 µM) |  |  | 
O=c1cc(NCCCNCc2cc(Cl)cc(Cl)c2OCCc2ccccc2)[nH]c2ccccc12 [Example 69, 2-[3-(3,5-Dichloro-2-phenethoxybenzylamino)propylamino]-1H-quinolin-4-one] | < 1 | 2 to 64 (≈ 4.03 to 129 µM) |  |  | 
O=c1cc(NCCCNCc2cc(Br)c(Br)s2)[nH]c2ccccc12 [Example 37] | < 1 | 2 to 64 (≈ 4.24 to 136 µM) |  |  | 
O=c1cc(NCC2CCCC2NCc2ccc(Cl)c(Cl)c2)[nH]c2ccccc12 (stereo not shown) [Example 60, 2-{[2-(3,4-Dichlorobenzylamino)cyclopentyl]methylamino}-1H-quinolin-4-one] |  | 2 to 64 (≈ 4.8 to 154 µM) |  |  | < 1
O=c1cc(NCCCNC2CCCc3c(Cl)cc(Cl)cc32)[nH]c2ccccc12 (stereo not shown) [Example 51, 2-[3-(5,7-Dichloro-1,2,3,4-tetrahydronaphth-1-ylamino)prop-1-ylamino]-1H-quinolin-4-one] |  | 2 to 64 (≈ 4.8 to 154 µM) |  |  | < 1
